Reference: ChEMBL document CHEMBL4804286, “3-amino-4-(4-(4 (dimethylcarbamoyl) phenyl)-1,4-diazepan-1-yl) thieno [2,3-b] pyridine-2-carboxamide for use in cancer therapy and formulations comprising the same” (2020)
Where “and” joins values, the source holds several entries; their conditions need not be identical. Identical values can stand only once.

Tests used:
[1] = target: Phosphatidylinositol 4-kinase beta (Homo sapiens) (UniProt Q9UBF8); test: Inhibition of human PIK4CB assessed as percent of control at 2000 nM by KINOMEscan assay relative to control; parameters: scale not given: the % may be the effect or the level left
[2] = target: Myosin-IIIb (Homo sapiens) (UniProt Q8WXR4); test: Inhibition of human MYO3B assessed as percent of control at 2000 nM by KINOMEscan assay relative to control; parameters: scale not given: the % may be the effect or the level left
Chain of Myosin-IIIb (Homo sapiens) (Q8WXR4 whole entry): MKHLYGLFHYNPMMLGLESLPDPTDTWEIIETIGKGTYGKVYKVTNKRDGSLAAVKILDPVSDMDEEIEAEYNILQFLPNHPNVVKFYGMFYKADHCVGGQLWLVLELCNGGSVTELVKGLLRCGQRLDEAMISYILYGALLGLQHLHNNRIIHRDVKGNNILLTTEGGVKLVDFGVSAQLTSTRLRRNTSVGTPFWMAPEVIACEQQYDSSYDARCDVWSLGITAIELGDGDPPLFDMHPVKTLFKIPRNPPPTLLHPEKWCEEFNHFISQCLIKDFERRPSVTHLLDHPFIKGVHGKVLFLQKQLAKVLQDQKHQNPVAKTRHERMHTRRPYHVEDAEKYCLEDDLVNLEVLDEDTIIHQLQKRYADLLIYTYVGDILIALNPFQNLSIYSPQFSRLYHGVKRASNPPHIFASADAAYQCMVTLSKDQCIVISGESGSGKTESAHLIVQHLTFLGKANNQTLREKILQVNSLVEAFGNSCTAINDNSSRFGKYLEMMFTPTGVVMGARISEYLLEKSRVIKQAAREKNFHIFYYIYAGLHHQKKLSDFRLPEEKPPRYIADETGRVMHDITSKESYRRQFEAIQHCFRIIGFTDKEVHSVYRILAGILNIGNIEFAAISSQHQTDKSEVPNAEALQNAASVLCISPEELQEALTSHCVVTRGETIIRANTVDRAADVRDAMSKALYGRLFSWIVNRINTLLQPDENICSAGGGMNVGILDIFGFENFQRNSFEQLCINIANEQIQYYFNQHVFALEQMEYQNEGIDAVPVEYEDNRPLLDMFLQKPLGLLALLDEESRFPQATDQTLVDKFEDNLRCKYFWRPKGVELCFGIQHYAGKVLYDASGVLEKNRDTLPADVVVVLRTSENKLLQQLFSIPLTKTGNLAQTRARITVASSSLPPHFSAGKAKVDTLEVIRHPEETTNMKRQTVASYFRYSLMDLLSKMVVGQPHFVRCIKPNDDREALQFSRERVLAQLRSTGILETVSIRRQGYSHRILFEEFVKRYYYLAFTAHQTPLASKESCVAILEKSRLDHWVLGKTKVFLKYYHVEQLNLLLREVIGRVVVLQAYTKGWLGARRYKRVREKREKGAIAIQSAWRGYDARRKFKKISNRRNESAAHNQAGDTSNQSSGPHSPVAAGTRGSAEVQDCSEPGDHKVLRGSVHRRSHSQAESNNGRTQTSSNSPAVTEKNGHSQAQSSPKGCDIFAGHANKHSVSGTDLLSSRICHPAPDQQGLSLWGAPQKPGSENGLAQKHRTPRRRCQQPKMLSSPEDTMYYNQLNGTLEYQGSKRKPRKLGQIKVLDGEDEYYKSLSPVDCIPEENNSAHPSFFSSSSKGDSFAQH

[3] = target: Protein kinase C epsilon type (Homo sapiens) (UniProt Q02156); test: Inhibition of human PRKCE assessed as percent of control at 2000 nM by KINOMEscan assay relative to control; parameters: scale not given: the % may be the effect or the level left
[4] = target: Serine/threonine-protein kinase Nek1 (Homo sapiens) (UniProt Q96PY6); test: Inhibition of human NEK1 assessed as percent of control at 2000 nM by KINOMEscan assay relative to control; parameters: scale not given: the % may be the effect or the level left
[5] = target: Serine/threonine-protein kinase SIK1 (Homo sapiens) (UniProt P57059); test: Inhibition of human SIK assessed as percent of control at 2000 nM by KINOMEscan assay relative to control; parameters: scale not given: the % may be the effect or the level left
Chain of Serine/threonine-protein kinase SIK1 (Homo sapiens) (P57059 whole entry, canonical isoform): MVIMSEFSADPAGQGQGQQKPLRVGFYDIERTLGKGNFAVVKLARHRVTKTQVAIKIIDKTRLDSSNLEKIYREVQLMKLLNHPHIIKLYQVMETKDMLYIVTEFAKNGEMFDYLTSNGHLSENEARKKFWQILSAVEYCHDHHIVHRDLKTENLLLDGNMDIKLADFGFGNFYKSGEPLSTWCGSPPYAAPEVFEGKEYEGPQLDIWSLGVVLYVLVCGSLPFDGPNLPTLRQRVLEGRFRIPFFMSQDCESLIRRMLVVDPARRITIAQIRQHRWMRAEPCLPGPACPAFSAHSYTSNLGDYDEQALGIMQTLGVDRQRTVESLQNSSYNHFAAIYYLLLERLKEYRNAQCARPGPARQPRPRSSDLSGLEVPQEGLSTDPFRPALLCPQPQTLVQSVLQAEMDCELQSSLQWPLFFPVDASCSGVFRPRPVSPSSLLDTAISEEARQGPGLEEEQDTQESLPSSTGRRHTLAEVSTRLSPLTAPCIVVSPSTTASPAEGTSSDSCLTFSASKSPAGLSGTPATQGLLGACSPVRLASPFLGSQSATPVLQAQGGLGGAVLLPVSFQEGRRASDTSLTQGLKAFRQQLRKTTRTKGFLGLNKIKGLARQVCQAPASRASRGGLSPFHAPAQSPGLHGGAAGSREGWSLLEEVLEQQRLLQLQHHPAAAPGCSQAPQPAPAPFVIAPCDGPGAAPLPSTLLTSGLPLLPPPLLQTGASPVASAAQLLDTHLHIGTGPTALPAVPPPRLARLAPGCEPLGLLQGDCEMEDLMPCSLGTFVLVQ

[6] = target: Phosphatidylinositol 4,5-bisphosphate 3-kinase catalytic subunit delta isoform (Homo sapiens) (UniProt O00329); test: Inhibition of human PIK3CD assessed as percent of control at 2000 nM by KINOMEscan assay relative to control; parameters: scale not given: the % may be the effect or the level left
[7] = target: Glycogen synthase kinase-3 alpha (Homo sapiens) (UniProt P49840); conditions: INHIBITOR, dose 2000.0 nM
Description: Inhibition of human GSK3A at 2000 nM by KINOMEscan assay

[8] = target: Ephrin type-B receptor 4 (Homo sapiens) (UniProt P54760); test: Inhibition of human EPHB4 assessed as percent of control at 2000 nM by KINOMEscan assay relative to control; parameters: scale not given: the % may be the effect or the level left
[9] = target: Tyrosine-protein kinase JAK2 (Homo sapiens) (UniProt O60674); test: Inhibition of human JAK2 JH1 catalytic domain assessed as percent of control at 2000 nM by KINOMEscan assay relative to control; parameters: scale not given: the % may be the effect or the level left
[10] = target: Ribosomal protein S6 kinase alpha-4 (Homo sapiens) (UniProt O75676); test: Inhibition of human N-terminal RPS6KA4 kinase domain assessed as percent of control at 2000 nM by KINOMEscan assay relative to control; parameters: scale not given: the % may be the effect or the level left
[11] = target: Calcium/calmodulin-dependent protein kinase kinase 2 (Homo sapiens) (UniProt Q96RR4); test: Inhibition of human CAMKK2 assessed as percent of control at 2000 nM by KINOMEscan assay relative to control; parameters: scale not given: the % may be the effect or the level left
Chain of Calcium/calmodulin-dependent protein kinase kinase 2 (Homo sapiens) (Q96RR4 2-588 limits assumed): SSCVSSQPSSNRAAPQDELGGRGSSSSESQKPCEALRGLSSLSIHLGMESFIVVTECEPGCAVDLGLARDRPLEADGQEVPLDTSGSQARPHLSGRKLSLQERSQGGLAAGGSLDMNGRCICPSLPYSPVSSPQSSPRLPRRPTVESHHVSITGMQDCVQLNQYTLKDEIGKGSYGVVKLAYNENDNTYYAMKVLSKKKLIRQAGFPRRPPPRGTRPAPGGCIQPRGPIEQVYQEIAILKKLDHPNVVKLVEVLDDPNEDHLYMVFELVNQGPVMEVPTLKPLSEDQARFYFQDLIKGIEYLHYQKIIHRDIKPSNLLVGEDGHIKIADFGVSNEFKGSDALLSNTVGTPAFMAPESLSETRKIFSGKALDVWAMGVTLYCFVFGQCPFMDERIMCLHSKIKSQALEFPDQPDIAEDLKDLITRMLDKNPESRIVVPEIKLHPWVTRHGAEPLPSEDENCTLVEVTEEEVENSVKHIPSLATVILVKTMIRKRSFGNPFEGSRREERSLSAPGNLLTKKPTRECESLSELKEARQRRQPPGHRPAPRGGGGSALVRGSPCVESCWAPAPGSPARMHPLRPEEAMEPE

[12] = target: Serine/threonine-protein kinase MARK2 (Homo sapiens) (UniProt Q7KZI7); test: Inhibition of human MARK2 assessed as percent of control at 2000 nM by KINOMEscan assay relative to control; parameters: scale not given: the % may be the effect or the level left
[13] = target: Bone morphogenetic protein receptor type-1A (Homo sapiens) (UniProt P36894); test: Inhibition of human BMPR1A assessed as percent of control at 2000 nM by KINOMEscan assay relative to control; parameters: scale not given: the % may be the effect or the level left
[14] = target: Myosin light chain kinase family member 4 (Homo sapiens) (UniProt Q86YV6); test: Inhibition of human MYLK4 assessed as percent of control at 2000 nM by KINOMEscan assay relative to control; parameters: scale not given: the % may be the effect or the level left
Chain of Myosin light chain kinase family member 4 (Homo sapiens) (Q86YV6 whole entry): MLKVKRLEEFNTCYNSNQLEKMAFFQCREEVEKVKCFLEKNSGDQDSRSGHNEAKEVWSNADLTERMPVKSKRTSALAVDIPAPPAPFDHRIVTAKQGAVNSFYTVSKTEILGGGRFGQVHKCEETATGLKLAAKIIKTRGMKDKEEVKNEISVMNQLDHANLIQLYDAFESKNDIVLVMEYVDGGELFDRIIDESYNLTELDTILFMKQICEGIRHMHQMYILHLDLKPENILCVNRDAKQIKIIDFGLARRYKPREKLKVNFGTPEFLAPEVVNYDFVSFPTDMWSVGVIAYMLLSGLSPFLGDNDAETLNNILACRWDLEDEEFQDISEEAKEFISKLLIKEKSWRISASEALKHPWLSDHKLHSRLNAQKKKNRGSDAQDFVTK

[15] = target: Serine/threonine-protein kinase ULK1 (Homo sapiens) (UniProt O75385); test: Inhibition of human ULK1 assessed as percent of control at 2000 nM by KINOMEscan assay relative to control; parameters: scale not given: the % may be the effect or the level left
[16] = system: Tyrosine-protein kinase ABL1 (Homo sapiens), P00519 [E255K]; test: Inhibition of phosphorylated human ABL1 E255K mutant assessed as percent of control at 2000 nM by KINOMEscan assay relative to control; parameters: scale not given: the % may be the effect or the level left
[17] = system: Phosphatidylinositol 4,5-bisphosphate 3-kinase catalytic subunit alpha isoform (Homo sapiens), P42336 [M1043I]; test: Inhibition of human PIK3CA M1043I mutant assessed as percent of control at 2000 nM by KINOMEscan assay relative to control; parameters: scale not given: the % may be the effect or the level left
[18] = system: Leucine-rich repeat serine/threonine-protein kinase 2 (Homo sapiens), Q5S007 [G2019S]; test: Inhibition of human LRRK2 G2019S mutant assessed as percent of control at 2000 nM by KINOMEscan assay relative to control; parameters: scale not given: the % may be the effect or the level left
[19] = target: Rhodopsin kinase GRK1 (Homo sapiens) (UniProt Q15835); test: Inhibition of human GRK1 assessed as percent of control at 2000 nM by KINOMEscan assay relative to control; parameters: scale not given: the % may be the effect or the level left
Chain of Rhodopsin kinase GRK1 (Homo sapiens) (Q15835 whole entry): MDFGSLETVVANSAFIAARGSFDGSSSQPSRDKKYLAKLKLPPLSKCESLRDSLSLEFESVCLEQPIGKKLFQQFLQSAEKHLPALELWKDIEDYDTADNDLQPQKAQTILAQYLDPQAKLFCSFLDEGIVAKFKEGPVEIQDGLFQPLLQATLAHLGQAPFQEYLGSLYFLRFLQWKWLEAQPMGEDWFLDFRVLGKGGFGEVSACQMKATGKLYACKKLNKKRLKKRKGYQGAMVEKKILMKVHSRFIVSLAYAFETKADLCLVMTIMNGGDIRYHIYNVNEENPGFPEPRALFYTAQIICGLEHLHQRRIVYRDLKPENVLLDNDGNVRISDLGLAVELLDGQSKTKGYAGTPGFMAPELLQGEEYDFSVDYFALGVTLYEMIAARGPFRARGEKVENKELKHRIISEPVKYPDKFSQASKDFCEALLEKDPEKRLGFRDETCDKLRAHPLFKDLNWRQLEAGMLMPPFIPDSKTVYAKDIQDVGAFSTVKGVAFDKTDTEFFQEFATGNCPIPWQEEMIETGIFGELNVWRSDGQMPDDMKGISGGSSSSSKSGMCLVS

[20] = target: Activin receptor type-2A (Homo sapiens) (UniProt P27037); test: Inhibition of human ACVR2A assessed as percent of control at 2000 nM by KINOMEscan assay relative to control; parameters: scale not given: the % may be the effect or the level left
Chain of Activin receptor type-2A (Homo sapiens) (P27037 whole entry): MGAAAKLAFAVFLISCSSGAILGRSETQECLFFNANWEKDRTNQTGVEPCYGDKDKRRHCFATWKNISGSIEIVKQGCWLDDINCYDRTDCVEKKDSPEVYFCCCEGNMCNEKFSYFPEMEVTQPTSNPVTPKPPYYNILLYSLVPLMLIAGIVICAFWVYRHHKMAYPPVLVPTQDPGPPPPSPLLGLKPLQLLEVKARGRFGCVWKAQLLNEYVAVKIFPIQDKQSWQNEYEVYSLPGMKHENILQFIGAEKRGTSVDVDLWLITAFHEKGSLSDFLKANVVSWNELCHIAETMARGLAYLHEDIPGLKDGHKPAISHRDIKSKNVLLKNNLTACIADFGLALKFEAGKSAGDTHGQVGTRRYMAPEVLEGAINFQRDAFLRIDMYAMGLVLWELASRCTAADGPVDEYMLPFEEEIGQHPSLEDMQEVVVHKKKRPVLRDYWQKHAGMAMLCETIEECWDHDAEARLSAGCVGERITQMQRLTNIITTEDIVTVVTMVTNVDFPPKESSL

[21] = target: Leucine-rich repeat serine/threonine-protein kinase 2 (Homo sapiens) (UniProt Q5S007); test: Inhibition of human LRRK2 assessed as percent of control at 2000 nM by KINOMEscan assay relative to control; parameters: scale not given: the % may be the effect or the level left
[22] = target: Serine/threonine-protein kinase RIO1 (Homo sapiens) (UniProt Q9BRS2); test: Inhibition of human RIOK1 assessed as percent of control at 2000 nM by KINOMEscan assay relative to control; parameters: scale not given: the % may be the effect or the level left
[23] = target: Dual specificity mitogen-activated protein kinase kinase 7 (Homo sapiens) (UniProt O14733); test: Inhibition of human MKK7 assessed as percent of control at 2000 nM by KINOMEscan assay relative to control; parameters: scale not given: the % may be the effect or the level left
Chain of Dual specificity mitogen-activated protein kinase kinase 7 (Homo sapiens) (O14733 whole entry): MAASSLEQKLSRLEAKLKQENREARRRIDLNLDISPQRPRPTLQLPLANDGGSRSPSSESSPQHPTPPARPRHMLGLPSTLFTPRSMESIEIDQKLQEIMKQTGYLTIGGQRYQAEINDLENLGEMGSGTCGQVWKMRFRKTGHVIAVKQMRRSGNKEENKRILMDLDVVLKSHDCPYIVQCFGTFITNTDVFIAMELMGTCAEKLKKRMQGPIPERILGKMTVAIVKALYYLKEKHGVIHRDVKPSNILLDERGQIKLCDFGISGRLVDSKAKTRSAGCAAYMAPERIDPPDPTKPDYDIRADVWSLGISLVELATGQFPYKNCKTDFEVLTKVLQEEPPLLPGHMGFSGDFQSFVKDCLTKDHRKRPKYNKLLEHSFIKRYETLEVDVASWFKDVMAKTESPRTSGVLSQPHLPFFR

[24] = target: Serine/threonine-protein kinase MARK1 (Homo sapiens) (UniProt Q9P0L2); test: Inhibition of human MARK1 assessed as percent of control at 2000 nM by KINOMEscan assay relative to control; parameters: scale not given: the % may be the effect or the level left
[25] = target: Tyrosine-protein kinase JAK1 (Homo sapiens) (UniProt P23458); test: Inhibition of human JAK1 JH1 catalytic domain assessed as percent of control at 2000 nM by KINOMEscan assay relative to control; parameters: scale not given: the % may be the effect or the level left
[26] = system: Tyrosine-protein kinase ABL1 (Homo sapiens), P00519 [Y253F]; test: Inhibition of phosphorylated human ABL1 Y253F mutant assessed as percent of control at 2000 nM by KINOMEscan assay relative to control; parameters: scale not given: the % may be the effect or the level left
[27] = target: Mitogen-activated protein kinase 13 (Homo sapiens) (UniProt O15264); test: Inhibition of human p38-delta assessed as percent of control at 2000 nM by KINOMEscan assay relative to control; parameters: scale not given: the % may be the effect or the level left
Chain of Mitogen-activated protein kinase 13 (Homo sapiens) (O15264 whole entry): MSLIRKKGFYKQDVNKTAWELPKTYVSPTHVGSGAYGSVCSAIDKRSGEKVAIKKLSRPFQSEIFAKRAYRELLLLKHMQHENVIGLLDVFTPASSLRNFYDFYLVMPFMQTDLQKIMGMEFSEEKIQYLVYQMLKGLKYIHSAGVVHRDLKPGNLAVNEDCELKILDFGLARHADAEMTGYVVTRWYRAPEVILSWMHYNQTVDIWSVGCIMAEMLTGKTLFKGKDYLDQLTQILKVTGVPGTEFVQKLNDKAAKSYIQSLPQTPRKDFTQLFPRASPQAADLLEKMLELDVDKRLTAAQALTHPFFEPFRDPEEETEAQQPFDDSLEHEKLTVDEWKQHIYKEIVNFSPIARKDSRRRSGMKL

[28] = target: Tyrosine-protein kinase Lyn (Homo sapiens) (UniProt P07948); test: Inhibition of human LYN assessed as percent of control at 2000 nM by KINOMEscan assay relative to control; parameters: scale not given: the % may be the effect or the level left
[29] = target: Macrophage colony-stimulating factor 1 receptor (Homo sapiens) (UniProt P07333); test: Inhibition of human CSF1R assessed as percent of control at 2000 nM by KINOMEscan assay relative to control; parameters: scale not given: the % may be the effect or the level left
[30] = target: Mitogen-activated protein kinase kinase kinase 15 (Homo sapiens) (UniProt Q6ZN16); test: Inhibition of human MAP3K15 assessed as percent of control at 2000 nM by KINOMEscan assay relative to control; parameters: scale not given: the % may be the effect or the level left
[31] = target: Calcium/calmodulin-dependent protein kinase type IV (Homo sapiens) (UniProt Q16566); test: Inhibition of human CAMK4 assessed as percent of control at 2000 nM by KINOMEscan assay relative to control; parameters: scale not given: the % may be the effect or the level left

CN(C)C(=O)c1ccc(N2CCCN(c3ccnc4sc(C(N)=O)c(N)c34)CC2)cc1
Activity [1]: 65%
Activity ([1]; INHIBITOR): 33%
Activity [2]: 87% and 100%
Activity [3]: 93% and 97%
Activity [4]: 80% and 96%
Activity [5]: 84% and 79%
Activity [6]: 94% and 71%
inhibition [7]: > 65%
Activity [8]: 100%
Activity [9]: 100% and 93%
Activity [10]: 96% and 100%
Activity [11]: 100% and 87%
Activity [12]: 100% and 96%
Activity [13]: 100%
Activity [14]: 100% and 94%
Activity [15]: 96% and 72%
Activity [16]: 100% and 82%
Activity [17]: 96% and 95%
Activity [18]: 90% and 76%
Activity [19]: 98% and 81%
Activity [20]: 95% and 92%
Activity [21]: 94% and 70%
Activity [22]: 100%
Activity [23]: 100% and 85%
Activity [24]: 100%
Activity [25]: 57% and 82%
Activity [26]: 100% and 81%
Activity [27]: 96% and 97%
Activity [28]: 100% and 98%
Activity [29]: 98% and 95%
Activity [30]: 97% and 92%
Activity [31]: 96% and 79%
